Assay results published in patent US9879032B2, “Pyridine compounds” (Daiichi Sankyo Company, Limited, priority 2015, dated 2018).

Assays:
[1] = biological target: human TNAP (Homo sapiens (Human), UniProt P05186); experiment: Inhibitory test of TNAP activity (pNPP substrate, p-nitrophenol production); format: biochemical; settings: inhibition of human TNAP activity, incubated at room temperature for 60 minutes
Method: COS 1 cells (DS Pharma Biomedical Co., Ltd.) were transfected with human TNAP (OriGene Technologies, Inc.) using Lipofectamine LTX & Plus reagent (Invitrogen Corp.). On the next day, the medium was replaced with a fresh medium, and the cells were cultured in an incubator for 3 days. After 3 days, the culture supernatant was collected and concentrated by centrifugation at 5000 G for 30 minutes using Amicon 14, 10^4 cut (Merck Millipore). The concentrated culture supernatant was dialyzed against 5 L of 50 mM Tris/200 mM NaCl/1 mM MgCl2/20 μM ZnCl2 twice and used as an enzyme source (enzyme solution). The substrate pNPP (ProteoChem Inc.) was adjusted to 3.1 mM with Milli-Q water, and a solution of each test compound dissolved in dimethyl sulfoxide (DMSO; Wako Pure Chemical Industries, Ltd.) by 6 serial dilutions at a 5-fold common ratio from 100 μM, or DMSO was added thereto at a final concentration of 1% by volume. The enzyme solution adjusted to 2 μg/mL with an assay buffer (200 mM Tris/2 mM MgCl2/0.04 mM ZnCl2/0.01% Tween 20) was added in the same amount of the substrate solution and incubated at room temperature for 60 minutes. Then, the absorbance (ABS: 405 nm) was measured using a microplate reader (model plus 384, Molecular Devices, LLC), and the concentration of produced p-nitrophenol was calculated.

[2] = test system: plasma ALP (80-90% containing TNAP); experiment: Inhibitory test of plasma TNAP activity in B6 mouse; format: in vivo; settings: administered orally, average inhibition from 0 hour to 6 hours after administration
Method: After blood sampling from the tail vein using a heparin-treated hematocrit capillary tube (EM Meister Hematocrit Capillary Tube, AS ONE Corp.) (as the sample before compound administration), each test compound suspended in a 0.5% methylcellulose solution (powder purchased from Wako Pure Chemical Industries, Ltd. was adjusted to 0.5% with Otsuka distilled water) was administered orally to the mouse. 1, 2, 4, 6, and 24 hours after the administration, blood was collected from the tail vein using a heparin-treated hematocrit capillary tube to obtain a plasma sample. The plasma sample was added to an assay buffer (1 M Tris, 1 M MgCl2, 20 mM ZnCl2, and water, pH 7.5), and the mixture was left standing for 5 minutes. Then, the absorbance at 405 nm was measured and used as a blank. The substrate pNPP was added to the plasma sample and incubated at room temperature for 180 minutes. Then, the absorbance (ABS: 405 nm) was measured using a microplate reader (model plus 384, Molecular Devices, LLC), and the concentration of produced p-nitrophenol was calculated. The blank was subtracted from all measurement values to calculate TNAP activity at each time point with the TNAP activity of the sample before compound administration defined as 100%. The pharmaceutical effect of the test compound was evaluated by the average inhibition of plasma ALP (80-90% containing TNAP) activity for 6 hours from 0 hour to 6 hours after the administration of the test compound. It was calculated according to the following expression: 100−((plasma ALP activity at 0 hr+plasma ALP activity at 1 hr)*1/2+(plasma ALP activity at 1 hr+plasma ALP activity at 2 hr)*1/2+(plasma ALP activity at 2 hr+plasma ALP activity at 4 hr)*2/2+(plasma ALP activity at 4 hr+plasma ALP activity at 6 hr)*2/2)/6.

human TNAP, sequence (P05186 18-502): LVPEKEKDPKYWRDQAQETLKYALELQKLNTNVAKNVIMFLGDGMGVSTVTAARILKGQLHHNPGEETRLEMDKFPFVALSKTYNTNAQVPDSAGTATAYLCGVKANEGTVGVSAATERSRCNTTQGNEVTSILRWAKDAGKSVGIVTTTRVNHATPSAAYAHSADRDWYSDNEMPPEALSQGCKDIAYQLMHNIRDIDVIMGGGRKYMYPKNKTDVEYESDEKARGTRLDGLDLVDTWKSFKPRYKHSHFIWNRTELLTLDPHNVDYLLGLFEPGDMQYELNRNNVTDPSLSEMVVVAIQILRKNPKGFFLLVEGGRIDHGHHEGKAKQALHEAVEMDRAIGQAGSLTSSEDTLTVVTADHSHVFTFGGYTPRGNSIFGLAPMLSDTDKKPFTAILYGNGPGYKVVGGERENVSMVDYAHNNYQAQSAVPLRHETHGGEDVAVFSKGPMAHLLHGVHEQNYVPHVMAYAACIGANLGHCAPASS

| IC50 [1] [nM] | Compound | Plasma ALP inhibition (6 h ave. inhibition %) [2] [%] |
| --- | --- | --- |
| 2.7 | O=C1NC2(CC2)COc2ncc(NS(=O)(=O)c3cc(F)ccc3OC(F)(F)F)cc21 [Example 41, 5-Fluoro-N-(5′-oxo-4′,5′-dihydrospiro[cyclopropane-1,3′-pyrido[3,2-f][1,4]oxazepin]-7′-yl)-2-(trifluoromethoxy)benzenesulfonamide] | – |
| 1.4 | COc1ccc(Cl)cc1S(=O)(=O)Nc1cnc2c(c1)C(=O)NC(c1cccnc1)CO2 (stereo not shown) [Example 44, 5-Chloro-2-methoxy-N-[5-oxo-3-(pyridin-3-yl)-2,3,4,5-tetrahydropyrido[3,2-f][1,4]oxazepin-7-yl]benzenesulfonamide] | – |
| 14.6 | COc1ccc(Cl)cc1S(=O)(=O)Nc1cnc2c(c1)C(=O)NC(C(=O)N(C)C)CO2 (stereo not shown) [Example 45, 7-{[(5-Chloro-2-methoxyphenyl)sulfonyl]amino}-N,N-dimethyl-5-oxo-2,3,4,5-tetrahydropyrido[3,2-f][1,4]oxazepine-3-carboxamide] | – |
| 25.2 | COc1ccc(Cl)cc1S(=O)(=O)Nc1cnc2c(c1)C(=O)NC(C(=O)N1CCOCC1)CO2 (stereo not shown) [Example 46, 5-chloro-2-methoxy-N-[3-(morpholin-4-ylcarbonyl)-5-oxo-2,3,4,5-tetrahydropyrido[3,2-f][1,4]oxazepin-7-yl]benzenesulfonamide] | – |
| – | COc1ccc(Cl)cc1S(=O)(=O)[N-]c1cnc2c(c1)C(=O)NCCO2.[K+] [Example 47, Potassium [(5-chloro-2-methoxyphenyl)sulfonyl](5-oxo-2,3,4,5-tetrahydropyrido[3,2-f][1,4]oxazepin-7-yl)azanide] | 54.7 |
| – | COc1ccc(F)cc1S(=O)(=O)[N-]c1cnc2c(c1)C(=O)NCCO2.[K+] [Example 48, Potassium [(5-fluoro-2-methoxyphenyl)sulfonyl](5-oxo-2,3,4,5-tetrahydropyrido[3,2-f][1,4]oxazepin-7-yl)azanide] | 61.6 |
| – | O=C1NCCOc2ncc([N-]S(=O)(=O)c3cc(Cl)ccc3OC(F)(F)F)cc21.[K+] [Example 50, Potassium {[5-chloro-2-(trifluoromethoxy)phenyl]sulfonyl}(5-oxo-2,3,4,5-tetrahydropyrido[3,2-f][1,4]oxazepin-7-yl)azanide] | 56.0 |
| – | COc1ccc(Cl)cc1S(=O)(=O)[N-]c1cnc2c(c1)C(=O)N[C@@H](CO)CO2.[K+] [Example 51, Potassium [(5-chloro-2-methoxyphenyl)sulfonyl][(3S)-3-(hydroxymethyl)-5-oxo-2,3,4,5-tetrahydropyrido[3,2-f][1,4]oxazepin-7-yl]azanide] | 63.7 |
| – | COc1ccc(F)cc1S(=O)(=O)[N-]c1cnc2c(c1)C(=O)N[C@@H](CO)CO2.[K+] [Example 52, Potassium [(5-fluoro-2-methoxyphenyl)sulfonyl][(3S)-3-(hydroxymethyl)-5-oxo-2,3,4,5-tetrahydropyrido[3,2-f][1,4]oxazepin-7-yl]azanide] | 61.3 |
| – | COc1ccc(Br)cc1S(=O)(=O)[N-]c1cnc2c(c1)C(=O)N[C@@H](CO)CO2.[K+] [Example 53, Potassium [(5-bromo-2-methoxyphenyl)sulfonyl][(3S)-3-(hydroxymethyl)-5-oxo-2,3,4,5-tetrahydropyrido[3,2-f][1,4]oxazepin-7-yl]azanide] | 59.2 |
| – | O=C1N[C@@H](CO)COc2ncc([N-]S(=O)(=O)c3cc(Cl)ccc3OC(F)(F)F)cc21.[K+] [Example 54, Potassium {[5-chloro-2-(trifluoromethoxy)phenyl]sulfonyl}[(3S)-3-(hydroxymethyl)-5-oxo-2,3,4,5-tetrahydropyrido[3,2-f][1,4]oxazepin-7-yl]azanide] | 74.8 |
| – | COc1ccc(Cl)cc1S(=O)(=O)[N-]c1cnc2c(c1)C(=O)NC1(CC1)CO2.[K+] [Example 55, Potassium [(5-chloro-2-methoxyphenyl)sulfonyl](5′-oxo-4′,5′-dihydrospiro[cyclopropane-1,3′-pyrido[3,2-f][1,4]oxazepin]-7′-yl)azanide] | 58.9 |
| – | COc1ccc(F)cc1S(=O)(=O)[N-]c1cnc2c(c1)C(=O)NC1(CC1)CO2.[K+] [Example 57, Potassium [(5-fluoro-2-methoxyphenyl)sulfonyl](5′-oxo-4′,5′-dihydrospiro[cyclopropane-1,3′-pyrido[3,2-f][1,4]oxazepin]-7′-yl)azanide] | 53.5 |
| – | O=C1NC2(CC2)COc2ncc([N-]S(=O)(=O)c3cc(Cl)ccc3OC(F)(F)F)cc21.[K+] [Example 58, Potassium {[5-chloro-2-(trifluoromethoxy)phenyl]sulfonyl}(5′-oxo-4′,5′-dihydrospiro[cyclopropane-1,3′-pyrido[3,2-f][1,4]oxazepin]-7′-yl)azanide] | 50.3 |
| – | CCOc1ccc(F)cc1S(=O)(=O)[N-]c1cnc2c(c1)C(=O)NC1(CC1)CO2.[K+] [Example 59] | 66.2 |
| – | COc1ccc(OC)c(S(=O)(=O)[N-]c2cnc3c(c2)C(=O)NC2(CC2)CO3)c1.[K+] [Example 61, Potassium [(2,5-dimethoxyphenyl)sulfonyl](5′-oxo-4′,5′-dihydrospiro[cyclopropane-1,3′-pyrido[3,2-f][1,4]oxazepin]-7′-yl)azanide] | 67.5 |

| Compound | IC50 [1] [nM] | Plasma ALP inhibition (6 h ave. inhibition %) [2] [%] |
| --- | --- | --- |
| O=C1NC2(CC2)COc2ncc(NS(=O)(=O)c3cc(Cl)ccc3OC(F)(F)F)cc21 [Example 40, 5-Chloro-N-(5′-oxo-4′,5′-dihydrospiro[cyclopropane-1,3′-pyrido[3,2-f][1,4]oxazepin]-7′-yl)-2-(trifluoromethoxy)benzenesulfonamide] | 1.9 | – |
| CCOc1ccc(F)cc1S(=O)(=O)Nc1cnc2c(c1)C(=O)NC1(CC1)CO2 [Example 42, 2-Ethoxy-5-fluoro-N-(5′-oxo-4′,5′-dihydrospiro[cyclopropane-1,3′-pyrido[3,2-f][1,4]oxazepin]-7′-yl)benzenesulfonamide] | 0.6 | – |
| COc1ccc(OC)c(S(=O)(=O)Nc2cnc3c(c2)C(=O)NC2(CC2)CO3)c1 [Example 43, 2,5-Dimethoxy-N-(5′-oxo-4′,5′-dihydrospiro[cyclopropane-1,3′-pyrido[3,2-f][1,4]oxazepin]-7′-yl)benzenesulfonamide] | 1 | – |
